Reference: article PMC9322164, “Novel Neuroprotective Potential of Bunchosia armeniaca (Cav.) DC against Lipopolysaccharide Induced Alzheimer’s Disease in Mice” (Plants, 2022)

Columns and labels:
[1] = ABTS cation radical decolorization assay; details: mean ± SD, n = 6
[2] = Ferric reducing antioxidant power (FRAP) assay; details: mean ± SD, n = 6
Method: Natural products’ ability to reduce metals is regarded as a key marker of their antioxidant properties. Spectroscopically, the quantity of ferric (Fe^3+) complex conversion to ferrous (Fe^2+) form is detected by the color change of the solution based on the compound’s ability for reduction. The increased reduction capability of the studied sample is shown by the higher absorbance of the reaction mixture. FRAP values of B. armeniaca extract and its fractions were recorded in (Table 2) and expressed as EC50 (µg/mL).
The FRAP technique was carried out in microplates with slight modifications as described by. Briefly, a fresh FRAP solution was prepared shortly before the reaction in a 10:1:1 v/v/v ratio, consisting of acetate buffer (300 mM, PH = 3.6), tripyridyltriazine (TPTZ, 10 mM) in HCl (40 mM), and FeCl3 (20 mM), respectively. […] The FRAP test measured the absorbance change generated by electron-donating antioxidants converting a colorless oxidized Fe^+3-TPTZ complex to a blue-colored Fe^+2 molecule in acidic conditions. Data are represented as mean ± SD.
FRAP assay data were determined by Microsoft Excel®. […] AChE inhibition activity was performed in triplicate. […] The difference was considered significant when p < 0.05.

[3] = DPPH radical scavenging assay; details: mean ± SD, n = 6
[4] = design: method as in earlier work; details: previous research ref 5; cited from earlier work
[5] = system: LPS-induced Alzheimer in mice; experiment: Y maze spontaneous alternation test in LPS-induced Alzheimer in mice; format: in vivo; details: LPS 250 µg/kg/day IP 7 days; compared to normal control
Method: Fifty male Swiss mice weighing 20–35 gm were chosen for the investigation. They were held in filter-top plastic cages under hygienic conditions, with 12-h light and 12-hour dark cycles and 50% humidity at 28 °C. Unnecessary disturbance of animals was avoided. Squeezing, pressure, and abrasive maneuvers were avoided when dealing with the animals. Throughout the experiment, mice were fed a standard pellet meal, and water was allowed ad libitum. The laboratory animal experiments were conducted to comply with the recommendations of the Guide for the Care and Use of Laboratory Animals of the National Research Centre, Egypt, and the National Institutes of Health (NIH No. 85:23 revised 1985) in accordance with the guidelines provided by the CPCSEA and the World Medical Association Declaration of Helsinki on Ethical Principles for Studies Involving Experimental Animals. […]
Y maze spontaneous alternation test was performed 24 h after the last treatment dose, according to [126]. […] One day later, the mouse was allowed eight minutes of movements while its motion was recorded. The letter of the mouse was recorded down every time it entered an arm with all of its limbs inside. […] The alternation percentage was determined using the formula below: Number of alternations/(Total arm entries −2) ∗ 100

IL-1β = experiment: Brain content of IL-1β (ELISA) in LPS-induced Alzheimer in mice; format: in vivo; details: LPS 250 µg/kg/day IP 7 days; compared to normal control
Method: (§1) Firstly, mice were anesthetized using an IP injection of ketamine at a dose of 80–100 mg/kg. After they achieved a deep anesthetic state, mice were sacrificed by decapitation. Each mouse’s brain was promptly dissected and washed with phosphate-buffered saline (PBS) to eliminate extra blood. Weighed pieces were homogenized in PBS with the MPW-120 homogenizer, Med Instruments, Poland, to obtain a 20% homogenate, then they were kept overnight at −20 °C. […] The supernatant was removed immediately and assayed for brain contents of NF-κB, IL-1β, CYP2E1, and GFAP. They were determined using an ELISA kit (SunLong Biotec Co., Ltd., Hangzhou, China).
(§2) Standards and samples were added to wells containing immobilized antibodies specific for […] NF-κB, IL-1β, CYP2E1, and GFAP and kept for 30 min of incubation at 37 °C. After washing, horseradish peroxidase-conjugated streptavidin was added to the wells, kept for 30 min of incubation at 37 °C, and then washed for a second time. The wells were filled with tetramethylbenzidine (TMB) substrate solution and kept for 15 min of incubation at 37 °C; a color was produced in proportion to the quantity of NF-κB, IL-1β, CYP2E1, and GFAP bound. A stop solution was added to the wells to terminate the color development, and color intensity was detected at 450 nm after 10 min [130].

NF-κB = experiment: Brain content of NF-κB (ELISA) in LPS-induced Alzheimer in mice; format: in vivo; details: LPS 250 µg/kg/day IP 7 days; compared to normal control
Method: as §1, §2

GFAP = experiment: Brain content of GFAP (ELISA) in LPS-induced Alzheimer in mice; format: in vivo; details: LPS 250 µg/kg/day IP 7 days; compared to normal control
Method: as §1, §2

mice brain = experiment: Histopathological examination of mice brain (H&E); format: in vivo; details: LPS model, extracts 200 mg/kg/day oral 7 days
Method: Autopsy specimens were obtained from mice brains, divided into several groups and preserved in 10% formol saline for a day. Subsequently, rinsing with tap water, dehydration was achieved by alcohol serial dilutions (methyl, ethyl, and absolute ethyl alcohol). Samples were cleaned with xylene and immersed in paraffin for a day at 56 °C in a hot air oven. Paraffin beeswax tissue blocks were made using a sledge microtome and sectioned at a thickness of […].

CYP2E1 = experiment: Brain content of CYP2E1 (ELISA) in LPS-induced Alzheimer in mice; format: in vivo; details: LPS 250 µg/kg/day IP 7 days; compared to normal control
Method: as §1, §2

Cc1c(C)c2c(c(C)c1O)CCC(C)(C(=O)O)O2 (centres unmarked) [Trolox]
ABTS Assay IC50 [1]: 22.56 ± 0.78 µg/mL
FRAP Assay EC50 [2]: 96.97 ± 2.73 µg/mL
DPPH Assay IC50 [3]: 24.42 ± 0.87 µg/mL

O=C(O)c1cc(O)c(O)c(O)c1 [gallic acid]
DPPH IC50 [4]: 3.6 µg/mL

Lipopolysaccharide [LPS]
decrease of Y-maze alteration [5]: 58%
increase of IL-1β in the brain (IL-1β): 193%
increase of NF-κB in the brain (NF-κB): 309%
elevation of GFAP brain expression (GFAP): 276%
histopathology of cerebellum (mice brain): normal histological findings
histopathology of cerebral cortex (mice brain): nuclear pyknosis and neuronal degeneration with focal gliosis
histopathology of fascia dentata and hilus in the hippocampus (mice brain): nuclear pyknosis with degeneration
histopathology of hippocampus subiculum (mice brain): nuclear pyknosis and degeneration in some neurons
histopathology of striatum (mice brain): multiple focal eosinophilic plagues formation
elevation of CYP2E1 brain content (CYP2E1): 235%
